Results from ChEMBL document CHEMBL1201862, “PubChem BioAssay data set” (2004).
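Five compound concentrations were applied to cells in 96-well plates for 48 hours; endpoints were derived by simple linear interpolation of the resulting dose-response curve. GI50 marks 50% less growth.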 Activity calls are given as the source filed them. Cut-off read from the data, not from the text of the source: active = GI50 up to about 1.1 µM and inactive = higher.

Legend:
Assay in all cases: DTP human tumour cell line panel, 48 h
MCF7 = test system: MCF7
PC-3 = test system: PC-3
ACHN = test system: ACHN
NCI/ADR-RES = test system: NCI/ADR-RES
A498 = test system: A498
SK-MEL-28 = test system: SK-MEL-28
HCT-15 = test system: HCT-15
OVCAR-4 = test system: OVCAR-4
K562 = test system: K562
SF-295 = test system: SF-295
DU-145 = test system: DU-145
U-251 = test system: U-251
OVCAR-5 = test system: OVCAR-5
Hs-578T = test system: Hs-578T
SK-MEL-2 = test system: SK-MEL-2
MOLT-4 = test system: MOLT-4
HOP-92 = test system: HOP-92
HOP-62 = test system: HOP-62
SF-539 = test system: SF-539
SNB-75 = test system: SNB-75

Row | SMILES | GI50 (MCF7) | GI50 (PC-3) | GI50 (ACHN) | GI50 (NCI/ADR-RES) | GI50 (A498) | GI50 (SK-MEL-28) | GI50 (HCT-15) [µM] | GI50 (OVCAR-4) | GI50 (K562) | GI50 (SF-295) | GI50 (DU-145) | GI50 (U-251) | GI50 (OVCAR-5) | GI50 (Hs-578T) | GI50 (SK-MEL-2) | GI50 (MOLT-4) | GI50 (HOP-92) | GI50 (HOP-62) | GI50 (SF-539) | GI50 (SNB-75)
1 | COCC1OC([P+](c2ccccc2)(c2ccccc2)c2ccccc2)CC(OC)C1OC (stereo not given) | 38 µM (inactive) | 30.5 µM (inactive) | 74.6 µM (inactive) | > 100 µM (inactive) | 37.2 µM (inactive) | 68.1 µM (inactive) | > 100 | 44.1 µM (inactive) | 34.2 µM (inactive) | 34.2 µM (inactive) | 32.2 µM (inactive) | 35.6 µM (inactive) | 51.5 µM (inactive) | 28.2 µM (inactive) | 24.1 µM (inactive) | 58.1 µM (inactive) | – | – | – | –
2 | CCc1n[nH]c(=O)n1/N=C/c1c(O)ccc2ccccc12 | > 100 µM (inactive) | > 100 µM (inactive) | > 100 µM (inactive) | > 100 µM (inactive) | – | > 100 µM (inactive) | > 100 | > 100 µM (inactive) | > 100 µM (inactive) | > 100 µM (inactive) | > 100 µM (inactive) | > 100 µM (inactive) | > 100 µM (inactive) | 2.06 µM (inactive) | > 100 µM (inactive) | > 100 µM (inactive) | > 100 µM (inactive) | > 100 µM (inactive) | > 100 µM (inactive) | > 100 µM (inactive)
3 | Cc1ccc2c(=O)c(-c3nnc(NC4CCCCC4)s3)c[nH]c2n1 | > 100 µM (inactive) | > 100 µM (inactive) | > 100 µM (inactive) | > 100 µM (inactive) | > 100 µM (inactive) | > 100 µM (inactive) | > 100 | > 100 µM (inactive) | > 100 µM (inactive) | 81.7 µM (inactive) | > 100 µM (inactive) | > 100 µM (inactive) | > 100 µM (inactive) | > 100 µM (inactive) | > 100 µM (inactive) | 61 µM (inactive) | – | > 100 µM (inactive) | – | –
4 | CC1CC(N)=Nc2ccccc2N1Cc1ccccc1 (stereo not given) | – | 14.2 µM (inactive) | 15.2 µM (inactive) | 15.1 µM (inactive) | 11.2 µM (inactive) | 11.6 µM (inactive) | 15.8 | 16.5 µM (inactive) | 4.98 µM (inactive) | 14.5 µM (inactive) | 16.6 µM (inactive) | 15.2 µM (inactive) | 31.8 µM (inactive) | 11.1 µM (inactive) | 14.3 µM (inactive) | 3.49 µM (inactive) | – | 13 µM (inactive) | – | 6.89 µM (inactive)
5 | COc1cccc2c1C(=O)C=CC2=O | 1.93 µM (inactive) | – | 4.39 µM (inactive) | – | 16.2 µM (inactive) | 17.5 µM (inactive) | 7.85 | 1.95 µM (inactive) | 1.32 µM (inactive) | 15.6 µM (inactive) | 19.2 µM (inactive) | 6.81 µM (inactive) | 18.9 µM (inactive) | 15.4 µM (inactive) | 10.1 µM (inactive) | 0.526 µM (active) | 1.99 µM (inactive) | 19.9 µM (inactive) | 16.1 µM (inactive) | 14.8 µM (inactive)
6 | CCOP(=O)(OCC)/C(=C/NC(=S)c1ccncc1)C(=O)OC | > 100 µM (inactive) | > 100 µM (inactive) | > 100 µM (inactive) | > 100 µM (inactive) | – | – | > 100 | > 100 µM (inactive) | > 100 µM (inactive) | > 100 µM (inactive) | > 100 µM (inactive) | > 100 µM (inactive) | > 100 µM (inactive) | > 100 µM (inactive) | > 100 µM (inactive) | > 100 µM (inactive) | > 100 µM (inactive) | > 100 µM (inactive) | > 100 µM (inactive) | –
7 | CCOC(=O)/C=C/CC(C)(C)CCOC(C)=O | > 10 µM (inactive) | > 10 µM (inactive) | > 10 µM (inactive) | > 10 µM (inactive) | – | > 10 µM (inactive) | > 10 | > 10 µM (inactive) | > 10 µM (inactive) | > 10 µM (inactive) | > 10 µM (inactive) | > 10 µM (inactive) | > 10 µM (inactive) | > 10 µM (inactive) | > 10 µM (inactive) | > 10 µM (inactive) | > 10 µM (inactive) | > 10 µM (inactive) | > 10 µM (inactive) | > 10 µM (inactive)
8 | CCCCCCCC(=O)NC(C)(C)C(=O)NCC(=O)NC(CC(C)C)C(=O)NC(C)(C)C(=O)NCC(=O)NCC(=O)NC(CC(C)C)C(=O)NC(C)(C)C(=O)NCC(=O)NC(C(=O)NC(CO)CC(C)C)C(C)CC (stereo not given) | – | 3.77 µM (inactive) | 5 µM (inactive) | 4.83 µM (inactive) | – | 3.72 µM (inactive) | 4.86 | 4.01 µM (inactive) | 3.21 µM (inactive) | 4.26 µM (inactive) | 4.55 µM (inactive) | 2.39 µM (inactive) | 3.66 µM (inactive) | 4.42 µM (inactive) | 2.82 µM (inactive) | 3.73 µM (inactive) | 3.15 µM (inactive) | 4.28 µM (inactive) | – | 3.64 µM (inactive)
